Reference: PMC8151276, “An Integrated Approach toward NanoBRET Tracers for Analysis of GPCR Ligand Engagement” (Molecules, 2021)

How the values were obtained:
Type in all cases: binding
[1] = target: T1, FZD6 (Homo sapiens, UniProt O60353); test: NanoBRET screen HiBiT-FZD6 in HEK293
T1 construct: purchased Promega (in-house HiBiT-GPCR construct library, NanoBRET)
T1 sequence (O60353 19-706): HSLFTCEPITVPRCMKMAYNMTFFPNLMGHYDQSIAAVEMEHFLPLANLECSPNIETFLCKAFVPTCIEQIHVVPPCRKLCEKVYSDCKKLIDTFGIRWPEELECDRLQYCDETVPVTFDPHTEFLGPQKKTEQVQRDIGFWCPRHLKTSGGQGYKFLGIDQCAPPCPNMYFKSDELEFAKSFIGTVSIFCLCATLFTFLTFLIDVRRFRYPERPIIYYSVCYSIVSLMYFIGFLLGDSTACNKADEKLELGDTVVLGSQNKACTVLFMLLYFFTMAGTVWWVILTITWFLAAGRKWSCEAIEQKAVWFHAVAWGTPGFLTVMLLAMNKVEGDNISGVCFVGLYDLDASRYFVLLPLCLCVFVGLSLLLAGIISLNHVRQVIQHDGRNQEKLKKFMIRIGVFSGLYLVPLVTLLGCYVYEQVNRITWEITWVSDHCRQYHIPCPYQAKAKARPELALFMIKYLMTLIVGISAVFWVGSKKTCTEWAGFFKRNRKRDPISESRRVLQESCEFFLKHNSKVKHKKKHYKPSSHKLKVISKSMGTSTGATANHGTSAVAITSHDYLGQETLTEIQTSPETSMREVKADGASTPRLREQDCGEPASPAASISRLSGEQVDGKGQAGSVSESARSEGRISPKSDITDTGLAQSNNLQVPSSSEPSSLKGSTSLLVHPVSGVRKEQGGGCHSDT
Experimental: (§1) Each tracer candidate was screened across the entire library of HiBiT-GPCR constructs using NanoBRET as the detection modality. As depicted in Figure 4A, the specificity of interactions was evaluated through decrease in BRET due to competitive displacement of a bound tracer by excess parental compound. Each tracer was analyzed for binding to each HiBiT-GPCR fusion in the absence and in the presence of competing parental compound. Briefly, HEK293 cells were transfected with HiBiT-GPCR constructs diluted into promoterless DNA to reduce expression and maximize translocation to the cell surface. Each tracer candidate was then screened at concentrations of 1 μM and 0.1 μM across cells expressing these fusions. Cells were treated for 1.5 h with tracer either alone or in the presence of 20 μM competing parental compound (i.e., control). BRET was measured upon addition of purified LgBiT and subsequent complementation with HiBiT genetically fused to a GPCR. The specificity of interactions was assessed through a decrease in BRET signal due to competitive displacement of the bound tracer. To further gauge the robustness of these interactions, the fold response over the control (i.e., BRETtracer/BRETcontrol) was calculated. We chose a 1.5-fold response, which translates to ≥7-fold signal over noise as the minimal threshold required to score an interaction as positive. […]. Below we highlight the screening results obtained for our exemplary fluorescent tracers based on Clozapine, Amitriptyline and AZD1283.
(§2) HiBiT-GPCR DNA constructs were diluted in 10 mM Tris pH 8 to a final concentration of 0.01 μg/μL, arrayed in 96-well plates and stored at −20 °C. For transfection, HEK293 cells were suspended in Opti-MEM (without phenol red) supplemented with 2% fetal bovine serum (Seradigm) and 100 units/mL penicillin–streptomycin (Gibco) at a final concentration of 220,000 cells/mL and dispensed into white 96-well plates at 90 μL/well. Subsequent transfections and screens were carried using an Agilent Bravo Automated Liquid Handling Platform. First, the 96-well HiBiT DNA arrays were diluted 25-fold in Opti-MEM (without serum or phenol red) to a final concentration of 0.0004 μg/μL and 20 μL of the diluted DNAs were transferred into new 96-well plates. Next, promoterless carrier DNA (1 μg/μL) was diluted 25-fold (0.04 μg/μL) and then dispensed into the diluted arrays at 20 μL/well. Following brief mixing, Viafect transfection reagent (Promega) diluted 16-fold into Opti-MEM was dispensed into the plates at 40 μL/well. After mixing by pipetting, plates were incubated for 10 min on the pipetting station deck. The DNA-transfection reagent complexes were then added to plates containing cells. To facilitate the screen, 10 μL of DNA-transfection reagent complexes were added in duplicates to the top 4 and bottom 4 rows, resulting in two identical 48-well arrays per plate. Plates with transfected cells were incubated for 18–20 h at 37 °C/5% CO2. A screen of each tracer across the entire library using two different concentrations requires duplicate plates of transfected cells. Depending on the number of tracers being screened, transfections can be scaled up using the same ratios. The next day, for each tracer, four 20× screening solutions in tracer dilution buffer (Promega) were prepared: two duplicates at final concentration of 20 μM and two duplicates at a final concentration of 2 μM. A competing unmodified compound was added to one of each duplicate at a final concentration of 400 μM. The four resulting solutions were diluted 4-fold in Opti-MEM without serum or phenol red to generate 5× solutions (5 µM and 0.5 µM tracer +/− 100 μM competing compound). To screen the library, a BioTek MultiFlo FX liquid dispenser was used to dispense 22.5 µL of tracer solution to the top 4 rows and 22.5 µL tracer + competing compound solution to the 4 bottom rows. Plates were briefly mixed on an orbital shaker and incubated for 1.5 h at room temperature. […]

[2] = target: T2, PTAFR (Homo sapiens, UniProt P25105); test: NanoBRET screen HiBiT-PTAFR in HEK293
T2 construct: purchased Promega (in-house HiBiT-GPCR construct library, NanoBRET)
T2 sequence (P25105 whole entry): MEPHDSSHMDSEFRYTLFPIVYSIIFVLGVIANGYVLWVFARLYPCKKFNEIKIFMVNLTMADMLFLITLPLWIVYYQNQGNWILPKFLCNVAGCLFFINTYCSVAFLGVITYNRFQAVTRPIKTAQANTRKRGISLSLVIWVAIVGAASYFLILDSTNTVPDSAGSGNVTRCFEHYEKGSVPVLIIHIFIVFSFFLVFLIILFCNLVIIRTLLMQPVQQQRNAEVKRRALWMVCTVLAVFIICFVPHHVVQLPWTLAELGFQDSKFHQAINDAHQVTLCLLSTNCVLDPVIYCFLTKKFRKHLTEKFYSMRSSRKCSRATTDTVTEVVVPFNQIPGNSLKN
Experimental: as §1, §2

[3] = target: T3, HRH4 (Homo sapiens, UniProt Q9H3N8); test: NanoBRET screen HiBiT-HRH4 in HEK293
T3 construct: purchased Promega (in-house HiBiT-GPCR construct library, NanoBRET)
T3 sequence (Q9H3N8 whole entry): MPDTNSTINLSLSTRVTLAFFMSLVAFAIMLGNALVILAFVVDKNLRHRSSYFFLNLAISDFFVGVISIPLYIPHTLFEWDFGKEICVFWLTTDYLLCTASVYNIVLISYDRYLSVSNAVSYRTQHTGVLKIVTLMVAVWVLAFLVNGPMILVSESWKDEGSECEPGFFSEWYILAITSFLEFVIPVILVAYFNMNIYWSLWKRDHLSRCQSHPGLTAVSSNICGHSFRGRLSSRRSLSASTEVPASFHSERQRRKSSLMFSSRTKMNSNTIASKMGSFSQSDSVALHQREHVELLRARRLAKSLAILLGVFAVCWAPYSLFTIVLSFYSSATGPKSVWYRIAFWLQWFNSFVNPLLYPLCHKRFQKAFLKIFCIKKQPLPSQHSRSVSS
Experimental: as §1, §2

[4] = tracer at 0.1μM, listed as amitriptyline-b-2-NB590
[5] = tracer at 1μM, listed as amitriptyline-b-2-NB590

SMILES	NanoBRET Fold Response ([1]; FZD6, tracer 0.1μM)	NanoBRET Fold Response ([1]; FZD6, tracer 1μM)	NanoBRET Fold Response ([2]; PTAFR, tracer 0.1μM)	NanoBRET Fold Response ([2]; PTAFR, tracer 1μM)	NanoBRET Fold Response ([3]; HRH4, tracer 0.1μM)	NanoBRET Fold Response ([3]; HRH4, tracer 1μM)	NanoBRET Fold Response ([1]; tracer at 1μM)	other results
COc1ccccc1N1CCN(CCCCN2C(=O)c3ccc(CNC(=O)CCOCCNC(=O)c4ccc(CNC(=O)CCc5ccc6n5[B-](F)(F)[N+]5=C(c7ccc[nH]7)C=CC5=C6)cc4)cc3C2=O)CC1 [NAN-190-3-NB590]	0.95	1.13	1.05	1.30	0.93	0.93		
N#CN=C(NCCCOc1cccc(CN2CCCCC2)c1)NCCNC(=O)CCOCCOCCOCCOCCNC(=O)CCc1ccc2n1[B-](F)(F)[N+]1=C(c3ccc[nH]3)C=CC1=C2 [Aminopotentidine-2-NB590]	1.03	1.03	0.95	1.02	0.91	1.02		
CN(C)CCC=C1c2ccccc2CCc2ccc(C(=O)NCCNC(=O)CCOCCOCCOCCOCCNC(=O)CCc3ccc4n3[B-](F)(F)[N+]3=C(c5ccc[nH]5)C=CC3=C4)cc21 [Amitriptyline-b-2-NB590]							0.98	NanoBRET Fold Response [1, 4]: 1.00; NanoBRET Fold Response [2, 4]: 0.92; NanoBRET Fold Response [2, 5]: 1.02; NanoBRET Fold Response [3, 4]: 0.97; NanoBRET Fold Response [3, 5]: 1.13
COc1ccccc1N1CCN(CCCCN2C(=O)c3ccc(CNC(=O)CCOCCOCCOCCOCCNC(=O)CCc4ccc5n4[B-](F)(F)[N+]4=C(c6ccc[nH]6)C=CC4=C5)cc3C2=O)CC1 [NAN-190-2-NB590]	0.95	1.04	1.03	1.04	0.96			
O=C(CCOCCOCCOCCOCCNC(=O)CCc1ccc2n1[B-](F)(F)[N+]1=C(c3ccc[nH]3)C=CC1=C2)NCCCN1CCN(C2=Nc3ccccc3Oc3ccc(Cl)cc32)CC1 [Loxapine-a-2-NB590]	1.09	1.06	1.10	1.09	0.96	1.02		
CN(CCC=C1c2ccccc2CCc2ccccc21)C(=O)CCOCCOCCOCCOCCNC(=O)CCc1ccc2n1[B-](F)(F)[N+]1=C(c3ccc[nH]3)C=CC1=C2 [Amitriptyline-e-2-NB590]							1.09	NanoBRET Fold Response ([2]; tracer at 1μM): 1.06; NanoBRET Fold Response ([3]; tracer at 1μM): 0.92
CCCn1c(=O)c2[nH]c(-c3ccc(OCC(=O)NCCNC(=O)CCOCCNC(=O)c4ccc(CNC(=O)CCc5ccc6n5[B-](F)(F)[N+]5=C(c7ccc[nH]7)C=CC5=C6)cc4)cc3)nc2n(CCC)c1=O [XAC-3-NB590]	0.95	1.05	0.90	1.15	1.37	1.05		
CN(C)CCC=C1c2ccccc2CCc2ccc(C(=O)NCCNC(=O)CCOCCOCCOCCOCCNC(=O)CCc3ccc4n3[B-](F)(F)[N+]3=C(c5ccc[nH]5)C=CC3=C4)cc21 [Amitriptyline-a-2-NB590]							1.03	NanoBRET Fold Response ([1]; tracer at 0.1μM): 1.10; NanoBRET Fold Response ([2]; tracer at 0.1μM): 1.10; NanoBRET Fold Response ([2]; tracer at 1μM): 0.90; NanoBRET Fold Response ([3]; tracer at 0.1μM): 1.23; NanoBRET Fold Response ([3]; tracer at 1μM): 1.04
CCOC(=O)c1cc(C#N)c(N2CCC(C(=O)NS(=O)(=O)Cc3ccccc3/C=C/C(=O)NCCNC(=O)CCc3ccc4n3[B-](F)(F)[N+]3=C(c5ccc[nH]5)C=CC3=C4)CC2)nc1C [AZD1283-1-NB590]								NanoBRET Fold Response ([1]; FZD6, 0.1μM): 1.01; NanoBRET Fold Response ([1]; FZD6, 1μM): 0.35; NanoBRET Fold Response ([2]; PTAFR, 0.1μM): 1.01; NanoBRET Fold Response ([2]; PTAFR, 1μM): 1.17; NanoBRET Fold Response ([3]; HRH4, 0.1μM): 1.16; NanoBRET Fold Response ([3]; HRH4, 1μM): 1.10
